Earlier results as cited in patent US20080262061A1, “COMPOSITION AND USE OF A LIQUID FUNGICIDAL FORMULATION OF MYCLOBUTANIL OR TEBUCONAZOLE FUNGICIDE” (HELENA HOLDING COMPANY, priority 2007, published 2008).

Conditions: background statement

Row | Structure (SMILES) | water solubility
1 | CCCCC(C#N)(Cn1cncn1)c1ccc(Cl)cc1 (centres unmarked) [Myclobutanil, 2-p-chlorophenyl-2-(1H-1,2,4-triazol-1-ylmethyl)hexanenitrile] | not significantly water soluble
2 | CC(C)(C)C(O)(CCc1ccc(Cl)cc1)Cn1cncn1 (racemic) [tebuconazole, (RS)-1-p-chlorophenyl-4,4-dimethyl-3-(1H-1,2,4-triazol-1-ylmethyl)═pentan-3-ol] | not significantly water soluble
